Laboratory results published in patent US20220056040A1, “NOVEL 3-(2-BROMO-4-ALKYNYL-6-ALKOXYPHENYL)-3-PYRROLIN-2-ONES AND THEIR USE AS HERBICIDES” (Bayer Aktiengesellschaft, priority 2019, published 2022).

How the values were obtained:
Assay type in all cases: in vivo
Digitaria sanguinalis [1] = experiment: Pre-emergence herbicidal effect; conditions: 80 g/ha, visual score after 3 weeks vs untreated controls
From the text: (§1) Seeds of monocotyledonous and dicotyledonous weed plants and crop plants are laid out in sandy loam soil in wood-fiber pots and covered with soil. The compounds of the invention, formulated in the form of wettable powders (WP) or as emulsion concentrates (EC), are then applied to the surface of the covering soil as aqueous suspension or emulsion at a water application rate equating to 600 to 800 L/ha with addition of 0.2% wetting agent. After the treatment, the pots are placed in a greenhouse and kept under good growth conditions for the trial plants. The damage to the test plants is scored visually after a test period of 3 weeks by comparison with untreated controls (herbicidal activity in percent (%): 100% activity=the plants have died, 0% activity=like control plants).

Alopecurus myosuroides [2] = experiment: Pre-emergence herbicidal effect; conditions: 80 g/ha, visual score after 3 weeks vs untreated controls
From the text: as §1

Echinochloa crus-galli [3] = experiment: Pre-emergence herbicidal effect; conditions: 80 g/ha, visual score after 3 weeks vs untreated controls
From the text: as §1

Setaria viridis [4] = experiment: Pre-emergence herbicidal effect; conditions: 80 g/ha, visual score after 3 weeks vs untreated controls
From the text: as §1

Lolium rigidum [5] = experiment: Pre-emergence herbicidal effect; conditions: 80 g/ha, visual score after 3 weeks vs untreated controls
From the text: as §1

Avena fatua = experiment: Pre-emergence herbicidal effect; conditions: 80 g/ha, visual score after 3 weeks vs untreated controls
From the text: as §1

Digitaria sanguinalis [6] = experiment: Post-emergence herbicidal effect; conditions: 80 g/ha, post-emergence at one-leaf stage, visual score after about 3 weeks
Protocol: (§2) Seeds of monocotyledonous and dicotyledonous weed and crop plants are laid out in sandyloam soil in wood-fiber pots, covered with soil and cultivated in a greenhouse under good growth conditions. 2 to 3 weeks after sowing, the test plants are treated at the one-leaf stage. The compounds of the invention, formulated in the form of wettable powders (WP) or as emulsion concentrates (EC), are then sprayed onto the green parts of the plants as aqueous suspension or emulsion at a water application rate equating to 600 to 800 l/ha with addition of 0.2% wetting agent. After the test plants have been left to stand in the greenhouse under optimal growth conditions for about 3 weeks, the action of the preparations is assessed visually in comparison to untreated controls (herbicidal action in percent (%): 100% activity=the plants have died, 0% activity=like control plants).

Alopecurus myosuroides [7] = experiment: Post-emergence herbicidal effect; conditions: 80 g/ha, post-emergence at one-leaf stage, visual score after about 3 weeks
Protocol: as §2

Echinochloa crus-galli [8] = experiment: Post-emergence herbicidal effect; conditions: 80 g/ha, post-emergence at one-leaf stage, visual score after about 3 weeks
Protocol: as §2

Hordeum murinum = experiment: Post-emergence herbicidal effect; conditions: 80 g/ha, post-emergence at one-leaf stage, visual score after about 3 weeks
Protocol: as §2

Setaria viridis [9] = experiment: Post-emergence herbicidal effect; conditions: 80 g/ha, post-emergence at one-leaf stage, visual score after about 3 weeks
Protocol: as §2

Lolium rigidum [10] = experiment: Post-emergence herbicidal effect; conditions: 80 g/ha, post-emergence at one-leaf stage, visual score after about 3 weeks
Protocol: as §2

Structure (SMILES) | Pre-emergence action DIGSA (herbicidal activity in percent) (Digitaria sanguinalis [1]) [%] | Pre-emergence action ALOMY (herbicidal activity in percent) (Alopecurus myosuroides [2]) [%] | Pre-emergence action ECHCG (herbicidal activity in percent) (Echinochloa crus-galli [3]) [%] | Pre-emergence action SETVI (herbicidal activity in percent) (Setaria viridis [4]) [%] | Pre-emergence action LOLRI (herbicidal activity in percent) (Lolium rigidum [5]) [%] | Pre-emergence action AVEFA (herbicidal activity in percent) (Avena fatua) [%] | Post-emergence action against DIGSA (herbicidal action in percent) (Digitaria sanguinalis [6]) [%] | Post-emergence action against ALOMY (herbicidal action in percent) (Alopecurus myosuroides [7]) [%] | Post-emergence action against ECHCG (herbicidal action in percent) (Echinochloa crus-galli [8]) [%] | Post-emergence action against HORMU (herbicidal action in percent) (Hordeum murinum) [%] | Post-emergence action against SETVI (herbicidal action in percent) (Setaria viridis [9]) [%] | Post-emergence action against LOLRI (herbicidal action in percent) (Lolium rigidum [10]) [%]
CC#Cc1cc(Br)c(C2=C(O)C3(CCOCC3)NC2=O)c(OC)c1 [Example 1.1.01, 3-[2-Bromo-6-methoxy-4-(prop-1-yn-1-yl)phenyl]-4-hydroxy-8-oxa-1-azaspiro[4.5]dec-3-en-2-one] | 100 | 90 | 100 | 100 | 100 | 100 | 100 | 100 | 100 | 100 | 100 | 100
CC#Cc1cc(Br)c(C2=C(OC(=O)OCC)C3(CCOCC3)NC2=O)c(OC)c1 [Example 1.1.03] | – | – | – | – | – | – | 100 | 80 | 100 | – | 100 | 100
C=CCOC1CCC2(CC1)NC(=O)C(c1c(Br)cc(C#CC)cc1OC)=C2OC(=O)OC (centres unmarked) [Example 1.3.02] | 100 | 100 | 100 | 100 | 100 | 90 | 100 | 100 | 90 | – | 100 | 80
CC#Cc1cc(Br)c(C2=C(OC(=O)OC)C3(CCC(OCCOC)CC3)NC2=O)c(OC)c1 (centres unmarked) [Example 1.3.06] | 100 | 100 | 100 | 100 | 100 | 100 | – | – | – | – | – | –
CC#Cc1cc(Br)c(C2=C(O)C3(CCC(OCCOC)CC3)NC2=O)c(OC)c1 (centres unmarked) [Example 1.3.05] | 100 | 100 | 100 | 100 | 100 | 90 | – | – | – | – | – | –
CC#Cc1cc(Br)c(C2=C(OC(=O)OC)C3(CCOCC3)NC2=O)c(OC)c1 [Example 1.1.02, 3-[2-Bromo-6-methoxy-4-(prop-1-yn-1-yl)phenyl]-2-oxo-8-oxa-1-azaspiro[4.5]dec-3-en-4-yl methyl carbonate] | 100 | 90 | 80 | 100 | 100 | 80 | 100 | 100 | 100 | – | 100 | 100
CC#Cc1cc(Br)c(C2=C(OC(=O)OC)C3(CCC(OC(C)C)CC3)NC2=O)c(OC)c1 (centres unmarked) [Example 1.3.11] | 100 | 100 | 100 | 100 | 100 | 90 | – | – | – | – | – | –
CC#Cc1cc(Br)c(C2=C(OC(=O)OCC)C3(CCC(OCCOC)CC3)NC2=O)c(OC)c1 (centres unmarked) [Example 1.3.07] | 100 | 100 | 100 | 100 | 100 | 100 | – | – | – | – | – | –
CC#Cc1cc(Br)c(C2=C(OC(=O)OCC)C3(CCC(OC(C)C)CC3)NC2=O)c(OC)c1 (centres unmarked) [Example 1.3.12] | 100 | 100 | 100 | 100 | 100 | 80 | – | – | – | – | – | –
CC#Cc1cc(Br)c(C2=C(O)C3(CCC(OC(C)C)CC3)NC2=O)c(OC)c1 (centres unmarked) [Example 1.3.09] | 100 | 100 | 90 | 100 | 100 | 100 | – | – | – | – | – | –
CC#Cc1cc(Br)c(C2=C(OC(=O)OCC)C3(CCC4(CC3)OCCO4)NC2=O)c(OC)c1 [Example 1.2.01] | 100 | 90 | 100 | 100 | 100 | 100 | – | 100 | 100 | 100 | 100 | 100
CC#Cc1cc(Br)c(C2=C(OC(=O)C(C)C)C3(CCOCC3)NC2=O)c(OC)c1 [Example 1.1.04] | – | – | – | – | – | – | 100 | – | – | – | – | –
CC#Cc1cc(Br)c(C2=C(OC(C)=O)C3(CCC(OCCOC)CC3)NC2=O)c(OC)c1 (centres unmarked) [Example 1.3.08] | 100 | 100 | 100 | 100 | 100 | 90 | – | – | – | – | – | –
C=CCOC1CCC2(CC1)NC(=O)C(c1c(Br)cc(C#CC)cc1OC)=C2OC(=O)OCC (centres unmarked) [Example 1.3.03] | 100 | 100 | 100 | 100 | 100 | 90 | 100 | 100 | 100 | – | 100 | 100
